Earlier results on eight compounds are cited in patent publication US6376531B1, “Method of treatment using deuterium compounds” (priority 1998, dated 2002).

The structures appear in SMILES notation.

One data set concerns mouse. The settings on record: Hayes and Palmer, Experientia 1976.
In another data set the test system is mice. The following applies: Hayes and Palmer 1976, 1972.

Turning to `N[C@@H](Cc1c[nH]c2ccc(O)cc12)C(=O)O` [5-hydroxytryptophan], the “solubility in aqueous solutions” value was “soluble”. Regarding `[2H]O[2H]` [Deuterium oxide], the spontaneous locomotor activity result in the data set on mouse is recorded as “suppressed”. Moreover, the “effect on the period and entrainment of the light-dark (LD) cycle” value with mice was “chronomutagenic effect”. Regarding `COc1ccc2[nH]cc(CCNC(C)=O)c2c1` [Melatonin], the “solubility in aqueous solutions” value is “soluble” and the solubility in water result is recorded as “soluble”. Turning to `CSCC[C@H](N)C(=O)O` [Methionine], the solubility in water result is reported as “soluble”. `NC[C@H](O)c1ccc(O)c(O)c1` [Norepinephrine]: the “solubility in aqueous solutions” value is listed as “freely soluble”. In the case of `NCCc1c[nH]c2ccc(O)cc12` [Serotonin], the “solubility in aqueous solutions” value is “soluble”. Regarding `NCCc1c[nH]c2ccccc12` [Tryptamine], the “solubility in aqueous solutions” value was “practically insoluble”. Turning to `N[C@@H](Cc1c[nH]c2ccccc12)C(=O)O` [Tryptophan], the solubility in water entry is on record as “soluble”.
